Literature values as cited in PMC9880028 (Drug Design, Development and Therapy, 2023).

System: WNK1
Settings: read-out: IC50 (WNK1); only WNK1 inhibitor published when the screen was conducted; ref US Patent application US 2008/0286809 A1, Dario Alessi

Cc1cc(O)c2c(=O)c3c(O)cc(O)c4c5c(O)cc(O)c6c(=O)c7c(O)cc(C)c8c1c2c(c34)c(c78)c65 [hypericin]
IC50: 200 µM
